Reference: US20240197715A1, “PHARMACEUTICAL COMBINATIONS AND USES THEREOF” (NOVARTIS AG, priority 2022, published 2024)
Where “and” joins values, the source holds several entries; their conditions need not be identical. Equal values may be shown once.

Tests used:
Type in all cases: in vivo
[1] = system: SW620 (CCL-227, ATCC) MSS colorectal carcinoma xenografts; assay: SW620 MSS CRC xenograft efficacy in nude mice; settings: SW620; TMZ p.o. 5 consecutive days within 21 days cycle (100 mg/kg)
Protocol: SW620 (CCL-227, ATCC) [MSS colorectal carcinoma (CRC)] was cultured in DMEM (#1-26F01-I, AMIMED) supplemented with 10% FCS (#2-0-1F30-I, BioConcept), 4 mM L-glutamine (#5-10K50-H, BioConcept) and 1 mM Sodium pyruvate (#5-60F00-H, BioConcept). Cells were passaged by washing first with Dulbecco's PBS without Ca^2+/Mg^2+ (#3-05F29-1, AMIMED), trypsinising cells with Trypsin 0.05% in PBS with EDTA (#5-51F00-H, AMIMED), centrifuging in the respective culture media, and splitting cells into fresh media at a ratio of 1:8, 2 times per week.
Athymic nude mice (Charles River, Germany) were allowed to adapt for 7 days upon arrival at the animal facility and housed in a pathogen-controlled environment (5 mice/Type III cage) with access to food and water ad libitum. Animals were identified with transponders. Studies described in this report were performed according to procedures covered by a permit number issued by the Kantonales Veterinäramt Basel-Stadt.
Subcutaneous tumors were initiated by injecting 5.0×10^6 SW620 tumor cells in 50% Matrigel (#354234, Corning) in HBSS (#H6648, SIGMA) in the right flank of nude mice. The efficacy experiment (n=6), started 11 days post-cell injection.
Compound A and Temozolomide were made-up fresh on a weekly basis and kept at 4° C. and protected from light. Compound A was dissolved in 20% Hydroxypropyl-ß-Cyclodextrine (HP-ß-CD, #H107-100G, SIGMA) in UltraPure™ Water (#10977-035, Invitrogen) and administered p.o. at 10 ml/kg. Temozolomide was dissolved in 30% PEG-400 (#202398-500G, SIGMA) and 70% Dulbecco's PBS without Ca^2+/Mg^2+ (#3-05F29-1, AMIMED) and administered p.o. at 10 mL/kg on 5 consecutive days within a 21 days cycle. Irinotecan was made-up fresh for each treatment once a week by diluting with NaCl 0.9% (#3-06S00-I, BioConcept). The solution was administered i.v. at 5 mL/kg.
(§1) Tumor volumes (TVol), determined from caliper measurements (using the formula I*w2*π/6) were measured two times per week. Tumor response was quantified by the change in tumor volume (endpoint minus starting value in mm^3) as the T/C (the ratio between the tumor volume in the treated group and in the untreated control group). In the case of a tumor regression or to assess the percentage of change in TVol, the tumor response was quantified by the percentage of regression of the starting TVol. The body-weight (BW) of the animal was measured three times per week allowing calculation at any particular time-point relative to the day of initiation of treatment (day 0) of the percentage change in BW (4% BW).
At day 43 post-cell injection, irinotecan was administered intravenously at 15 mg/kg once weekly for 7 weeks in combination with Compound A, also administered from day 43, orally at 120 mg/kg daily for 52 days.
Starting 11 days post-cell injection, temozolomide was administered orally on a 21 day cycle of 5 consecutive days at 100 mg/kg on 5 consecutive days (day 11 to day 15 and day 32 to day 36). At day 43 post-cell injection, to the first group irinotecan was administered intravenously at 15 mg/kg once weekly for 6 weeks, and to the second group irinotecan was administered intravenously at 15 mg/kg once weekly for 6 weeks in combination with Compound A, also administered from day 43, orally at 120 mg/kg daily for 46 days.

[2] = Body weight / tolerability in SW620 tumor-bearing nude mice; settings: SW620 study; 21-days TMZ cycle
Protocol: as §1

[3] = Body weight / tolerability in T84 tumor-bearing nude mice; settings: T84 study; 28-days TMZ cycle
Protocol: as §1, with “I*w2*TT/6)” for “I*w2*π/6)”, “T/C.” for “T/C (the ratio between the tumor volume in the treated group and in the untreated control group).”

[4] = system: SHP-77 (CRL-2195, ATCC) MSS small cell lung carcinoma xenografts; assay: SHP-77 MSS SCLC xenograft efficacy in nude mice; settings: SHP77; TMZ 25 mg/kg p.o. 5 consecutive days within 28 days cycle
Protocol: SHP-77 (CRL-2195, ATCC) is a MSS small cell lung carcinoma (SCLC). It was cultured in RPMI 1640 Medium, GlutaMAX™ (#61870036, GIBCO) supplemented with 10% FCS (#2-O-1F30-I, BioConcept). Cells were passaged by washing first with Dulbecco's PBS without Ca^2+/Mg^2+ (#3-05F29-1, AMIMED), trypsinising cells with Trypsin 0.05% in PBS with EDTA (#5-51F00-H, AMIMED), centrifuging in the respective culture media, and splitting cells into fresh media at a ratio of 1:8, 2 times per week.
Athymic nude mice (Charles River, Germany) were allowed to adapt for 7 days upon arrival at the animal facility and housed in a pathogen-controlled environment (5 mice/Type III cage) with access to food and water ad libitum. Animals were identified with transponders. […]
as §1, with “I*w2*TT/6)” for “I*w2*π/6)”, “T/C.” for “T/C (the ratio between the tumor volume in the treated group and in the untreated control group).”

[5] = Body weight / tolerability in SHP-77 tumor-bearing nude mice; settings: SHP-77 study; single agent
Protocol: as §1, with “I*w2*TT/6)” for “I*w2*π/6)”, “T/C.” for “T/C (the ratio between the tumor volume in the treated group and in the untreated control group).”

## Cn1nnc2c(C(N)=O)ncn2c1=O [temozolomide]
[1]
  tumor regression after 1 cycle of temozolomide: 30-50% and 40%
[2]
  body weight change: dose-dependent body weight loss but mice always recovered at the end of the 21-days cycle
[3]
  body weight change: slight body weight loss but mice always recovered at the end of the 28-days cycle
[4]
  tumor regression after 2 cycles: 90%
[5]
  tolerability: well tolerated
